Measured values as given in patent publication US20070128217A1 (priority 2003, published 2007).

What was measured:
[1] = tested on: antibodies in sera from SARS patients (sera 1a, 1b, 2, 6, 37, 62, London, SARS-yellow, SARS-green); assay type: binding, human; parameters: Binding of serum 6 to linear peptides of protein X1 of SARS-CoV Urbani / Binding of serum 37 to linear peptides of protein X1 of SARS-CoV Urbani / Binding of serum 6 to looped/cyclic peptide (PEPSCAN-ELISA) / Binding of serum 37 to looped/cyclic peptide (PEPSCAN-ELISA) / Binding of serum 37 to looped/cyclic peptides of protein X1 of SARS-CoV Urbani / Binding of serum 6 to linear peptides of protein X2 / Binding of serum 37 to linear peptides of protein X2 / Binding of serum 37 to looped/cyclic peptides of protein X2 of SARS-CoV Urbani / Binding of serum 6 to linear peptides of protein M of SARS-CoV Urbani / Binding of serum 37 to linear peptides of protein M of SARS-CoV Urbani / Binding of serum 6 to looped/cyclic peptides of protein M of SARS-CoV Urbani / Binding of serum 37 to looped/cyclic peptides of protein M of SARS-CoV Urbani / Binding of serum 6 to linear peptides of protein X3 of SARS-CoV Urbani / Binding of serum 37 to linear peptides of protein X3 of SARS-CoV Urbani / Binding of serum 37 to looped/cyclic peptides of protein X3 of SARS-CoV Urbani / Binding of serum 6 to linear peptides of protein X4 of SARS-CoV Urbani / Binding of serum 37 to linear peptides of protein X4 of SARS-CoV Urbani / Binding of serum 37 to looped/cyclic peptides of protein X4 of SARS-CoV Urbani / Binding of serum 6 to linear peptides of protein X5 of SARS-CoV Urbani / Binding of serum 37 to linear peptides of protein X5 of SARS-CoV Urbani / Binding of serum 37 to looped/cyclic peptides of protein X5 of SARS-CoV Urbani / Binding of serum 6 to linear peptides of protein N of SARS-CoV Urbani / Binding of serum 37 to linear peptides of protein N of SARS-CoV Urbani / Binding of serum 6 to linear peptide (PEPSCAN-ELISA) / Binding of serum 1a to looped/cyclic peptides of protein N of SARS-CoV Urbani / Binding of serum 1b to looped/cyclic peptides of protein N of SARS-CoV Urbani / Binding of serum 2 to looped/cyclic peptides of protein N of SARS-CoV Urbani / Binding of serum 6 to looped/cyclic peptides of protein N of SARS-CoV Urbani / Binding of serum 37 to looped/cyclic peptides of protein N of SARS-CoV Urbani / Binding of serum 62 to looped/cyclic peptides of protein N of SARS-CoV Urbani / Binding of serum London to looped/cyclic peptides of protein N of SARS-CoV Urbani / Binding of serum SARS-green to looped/cyclic peptides of protein N of SARS-CoV Urbani: unit not given here
[2] = tested on: control sera (pooled serum of ten healthy LUMC hospital workers; commercial negative donor pooled serum from the Dutch bloodbank); assay type: binding, human; parameters: Binding of Control serum LUMC to linear peptides / Binding of Control serum Blood-bank to linear peptides / Binding of Control serum LUMC to looped peptides / Binding of Control Serum Blood-Bank to Looped peptides / Binding of Control serum LUMC to linear peptides of the protein M of SARS-CoV Urbani / Binding of Control serum Blood-bank to linear peptides of the protein M of SARS-CoV Urbani / Binding of Control serum LUMC to looped peptides of the protein M of SARS-CoV Urbani / Binding of Control Serum Blood-Bank to Looped peptides of the protein M of SARS-CoV Urbani: unit not given here
[3] = tested on: rabbit serum obtained by immunizing a rabbit with the SARS-CoV strain Frankfurt 1; assay type: binding; parameters: Binding of a rabbit serum to linear peptides / Binding of a rabbit serum to looped peptides / Rabbit serum linear peptides / Rabbit serum looped peptides / Binding of a rabbit serum to linear peptides of protein N of SARS-CoV Urbani (Rabbit serum linear peptides) / Binding of a rabbit serum to looped/cyclic peptides of protein N of SARS-CoV Urbani (Rabbit serum looped peptides): unit not given here

| Sequence | Binding of serum 1a to linear peptides of protein X1 of SARS-CoV Urbani [1] | Binding of serum 1a to looped/cyclic peptide (PEPSCAN-ELISA) [1] | Binding of serum 1b to linear peptides of protein X1 of SARS-CoV Urbani [1] | Binding of serum 1b to looped/cyclic peptide (PEPSCAN-ELISA) [1] | Binding of serum 2 to linear peptides of protein X1 of SARS-CoV Urbani [1] | Binding of serum 2 to looped/cyclic peptide (PEPSCAN-ELISA) [1] | Binding of serum 6 to linear peptides of protein X1 of SARS-CoV Urbani [1] | Binding of serum 6 to looped/cyclic peptide (PEPSCAN-ELISA) [1] | Binding of serum 37 to linear peptides of protein X1 of SARS-CoV Urbani [1] | Binding of serum 37 to looped/cyclic peptide (PEPSCAN-ELISA) [1] | Binding of serum 62 to linear peptides of protein X1 of SARS-CoV Urbani [1] | Binding of serum 62 to looped/cyclic peptide (PEPSCAN-ELISA) [1] | Binding of serum London to linear peptides of protein X1 of SARS-CoV Urbani [1] | Binding of serum London to looped/cyclic peptide (PEPSCAN-ELISA) [1] | Binding of serum SARS-green to linear peptides of protein X1 of SARS-CoV Urbani [1] | Binding of serum SARS-green to looped/cyclic peptide (PEPSCAN-ELISA) [1] | Binding of Control Serum Blood-Bank to Looped peptides [2] | Binding of Control serum Blood-bank to linear peptides [2] | Binding of Control serum LUMC to linear peptides [2] | Binding of Control serum LUMC to looped peptides [2] | further results |
| --- | --- | --- | --- | --- | --- | --- | --- | --- | --- | --- | --- | --- | --- | --- | --- | --- | --- | --- | --- | --- | --- |
| LIYFLQCINACRIIM | 0.7 | 0.2 | 0.6 | 0.4 | 0.6 | 0.7 | 0.5 | 1.2 | 0.6 | 0.2 | 0.6 | 0.4 | 0.3 | 1.1 | 0.2 | 0.6 | 0.9 | 0.6 | 0.6 | 0.7 | Binding of serum SARS-yellow to linear peptides of protein X1 of SARS-CoV Urbani [1]: 0.4; Binding of serum SARS-yellow to looped/cyclic peptide (PEPSCAN-ELISA) [1]: 0.6; Binding of a rabbit serum to linear peptides [3]: 0.1; Binding of a rabbit serum to looped peptides [3]: 0.3 |
| LYALIYFLQCINACR | 0.7 | 0.4 | 0.5 | 0.3 | 0.5 | 0.6 | 0.5 | 0.7 | 0.6 | 0.6 | 0.6 | 0.5 | 0.3 | 1.2 | 0.1 | 0.2 | 0.4 | 0.7 | 0.6 | 0.6 | Binding of serum SARS-yellow to linear peptides of protein X1 of SARS-CoV Urbani [1]: 0.4; Binding of serum SARS-yellow to looped/cyclic peptide (PEPSCAN-ELISA) [1]: 0.2; Binding of a rabbit serum to linear peptides [3]: 0.2; Binding of a rabbit serum to looped peptides [3]: 0.6 |
| WLCALGKVLPFHRWH | – | – | – | – | – | – | – | – | – | – | – | – | – | – | – | – | 0.4 | 0.9 | 0.6 | 0.6 | Binding of serum 1a to linear peptides of protein X5 of SARS-CoV Urbani [1]: 0.7; Binding of serum 1a to looped/cyclic peptides of protein X5 of SARS-CoV Urbani [1]: 0.5; Binding of serum 1b to linear peptides of protein X5 of SARS-CoV Urbani [1]: 0.6; Binding of serum 1b to looped/cyclic peptides of protein X5 of SARS-CoV Urbani [1]: 0.4; Binding of serum 2 to linear peptides of protein X5 of SARS-CoV Urbani [1]: 0.7; Binding of serum 2 to looped/cyclic peptides of protein X5 of SARS-CoV Urbani [1]: 0.6; Binding of serum 6 to linear peptides of protein X5 of SARS-CoV Urbani [1]: 0.8; Binding of serum 6 to looped/cyclic peptides of protein X5 of SARS-CoV Urbani [1]: 0.7; Binding of serum 37 to linear peptides of protein X5 of SARS-CoV Urbani [1]: 0.7; Binding of serum 37 to looped/cyclic peptides of protein X5 of SARS-CoV Urbani [1]: 0.5; Binding of serum 62 to linear peptides of protein X5 of SARS-CoV Urbani [1]: 0.8; Binding of serum 62 to looped/cyclic peptides of protein X5 of SARS-CoV Urbani [1]: 0.7; Binding of serum London to linear peptides of protein X5 of SARS-CoV Urbani [1]: 0.8; Binding of serum London to looped/cyclic peptides of protein X5 of SARS-CoV Urbani [1]: 0.5; Binding of serum SARS-green to linear peptides of protein X5 of SARS-CoV Urbani [1]: 0.6; Binding of serum SARS-green to looped/cyclic peptides of protein X5 of SARS-CoV Urbani [1]: 0.5; Binding of serum SARS-yellow to linear peptides of protein X5 of SARS-CoV Urbani [1]: 0.2; Binding of serum SARS-yellow to looped/cyclic peptides of protein X5 of SARS-CoV Urbani [1]: 0.6; Rabbit serum linear peptides [3]: 0.6; Rabbit serum looped peptides [3]: 0.8 |
